Target: FXR (Homo sapiens (Human), UniProt Q96RI1)
Assay: FXR EC50 (FXR agonist activity reported with each example)
Format: cell-based

Sequence of FXR (Q96RI1 262-486): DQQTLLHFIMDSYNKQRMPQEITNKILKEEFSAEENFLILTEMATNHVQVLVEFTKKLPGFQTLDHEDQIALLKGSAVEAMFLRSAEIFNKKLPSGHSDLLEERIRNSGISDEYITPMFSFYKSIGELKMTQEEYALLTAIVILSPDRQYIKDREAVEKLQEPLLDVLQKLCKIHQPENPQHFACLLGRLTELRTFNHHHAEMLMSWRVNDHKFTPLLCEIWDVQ

| Compound | EC50 [nM] |
| --- | --- |
| O=C(O)c1ccc(F)c(OCC23CCC(OCc4c(-c5c(Cl)cccc5Cl)noc4C4CC4)(CC2)CC3)c1 [Example 92, 3-((4-((5-cyclopropyl-3-(2,6-dichlorophenyl)isoxazol-4-yl)methoxy)bicyclo[2.2.2]octan-1-yl)methoxy)-4-fluorobenzoic acid] | 23 |
| O=C(O)c1cccn2c(C#CC34CCC(OCc5c(-c6c(Cl)cncc6Cl)noc5C5CC5)(CC3)CC4)cnc12 [Example 397] | 48 |
| COc1ccc2nc(C34CCC(OCc5c(-c6c(Cl)cncc6Cl)noc5C5CC5)(CC3)CC4)ccc2c1C(=O)O [Example 428] | 120 |
| O=C(O)c1ccc(-c2noc(C34CCC(CNc5c(-c6c(Cl)cccc6Cl)noc5C5CC5)(CC3)CC4)n2)cc1 [Example 167] | 530 |
| O=C(O)c1c(F)ccc2nc(C34CCC(OCc5c(-c6c(Cl)cncc6Cl)noc5C5CC5)(CC3)CC4)sc12 [Example 512, 2-(4-((5-cyclopropyl-3-(3,5-dichloropyridin-4-yl)isoxazol-4-yl)methoxy)bicyclo[2.2.2]octan-1-yl)-6-fluorobenzo[d]thiazole-7-carboxylic acid] | 43 |
| O=C(O)c1ccc(-c2noc(C34CCC(OCc5c(-c6c(Cl)cccc6Cl)noc5C5CC5)(CC3)CO4)n2)cc1 [Example 196] | 83 |
| O=C(O)c1csc(C23CCC(COCc4c(-c5c(Cl)cccc5Cl)noc4C4CC4)(CC2)CO3)n1 [Example 216] | 2000 |
| Cn1cc(C(=O)O)c2ccc(OCC34CCC(OCc5c(-c6c(Cl)cncc6Cl)noc5C5CC5)(CC3)CC4)cc21 [Example 97, 6-((4-((5-cyclopropyl-3-(3,5-dichloropyridin-4-yl)isoxazol-4-yl)methoxy)bicyclo[2.2.2]octan-1-yl)methoxy)-1-methyl-1H-indole-3-carboxylic acid] | 28 |
| CC(C)Oc1cc(OCC23CCC(OCc4c(-c5c(Cl)cncc5Cl)noc4C4CC4)(CC2)CC3)cnc1C(=O)O [Example 334, 5-((4-((5-cyclopropyl-3-(3,5-dichloropyridin-4-yl)isoxazol-4-yl)methoxy)bicyclo[2.2.2]octan-1-yl)methoxy)-3-isopropoxypicolinic acid] | 21 |
| CS(=O)(=O)c1cc(C(=O)O)nc2ccc(OCC34CCC(OCc5c(-c6c(Cl)cncc6Cl)noc5C5CC5)(CC3)CC4)cc12 [Example 332, 6-((4-((5-cyclopropyl-3-(3,5-dichloropyridin-4-yl)isoxazol-4-yl)methoxy)bicyclo[2.2.2]octan-1-yl)methoxy)-4-(methylsulfonyl)quinoline-2-carboxylic acid] | 830 |
| O=C(O)c1cccc(-c2noc(C34CCC(/C=C/c5c(-c6c(Cl)cncc6Cl)noc5C5CC5)(CC3)CC4)n2)c1 [Example 504, (E)-3-(5-(4-(2-(5-cyclopropyl-3-(3,5-dichloropyridin-4-yl)isoxazol-4-yl)vinyl)bicyclo[2.2.2]octan-1-yl)-1,2,4-oxadiazol-3-yl)benzoic acid] | 33 |
| O=C(O)c1ccc(-c2noc(C34CCC(/C=C/c5c(-c6c(Cl)cccc6Cl)noc5C5CC5)(CC3)CC4)n2)cc1 [Example 160] | 51 |
| Oc1ccc(-c2noc(C34CCC(OCc5c(-c6c(Cl)cncc6Cl)noc5C5CC5)(CC3)CC4)n2)cc1-c1nnn[nH]1 [Example 242, 4-(5-(4-((5-cyclopropyl-3-(3,5-dichloropyridin-4-yl)isoxazol-4-yl)methoxy)bicyclo[2.2.2]octan-1-yl)-1,2,4-oxadiazol-3-yl)-2-(1H-tetrazol-5-yl)phenol] | 1400 |
| O=C(O)c1cc(F)c2nc(C34CCC(OCc5c(-c6c(Cl)cncc6Cl)noc5C5CC5)(CC3)CC4)sc2c1 [Example 231, 2-(4-((5-cyclopropyl-3-(3,5-dichloropyridin-4-yl)isoxazol-4-yl)methoxy)bicyclo[2.2.2]octan-1-yl)-4-fluorobenzo[d]thiazole-6-carboxylic acid] | 53 |
| CC(C)Oc1ccc(-c2noc(C34CCC(OCc5c(-c6c(Cl)cncc6Cl)noc5C5CC5)(CC3)CC4)n2)cc1C(=O)O [Example 256, 5-(5-(4-((5-cyclopropyl-3-(3,5-dichloropyridin-4-yl)isoxazol-4-yl)methoxy)bicyclo[2.2.2]octan-1-yl)-1,2,4-oxadiazol-3-yl)-2-isopropoxybenzoic acid] | 260 |
| O=C(O)c1cc(F)cc(-c2noc(C34CCC(OCc5c(-c6c(Cl)cncc6Cl)noc5C5CC5)(CC3)CC4)n2)c1 [Example 458, 3-(5-(4-((5-cyclopropyl-3-(3,5-dichloropyridin-4-yl)isoxazol-4-yl)methoxy)bicyclo[2.2.2]octan-1-yl)-1,2,4-oxadiazol-3-yl)-5-fluorobenzoic acid] | 85 |
| O=C(O)c1cccc(OCC23CCC(OCc4c(-c5c(Cl)cccc5Cl)noc4C4CC4)(CC2)CC3)c1F [Example 96, 3-((4-((5-cyclopropyl-3-(2,6-dichlorophenyl)isoxazol-4-yl)methoxy)bicyclo[2.2.2]octan-1-yl)methoxy)-2-fluorobenzoic acid] | 120 |
| COc1cc(OCC23CCC(/C=C/c4c(-c5c(Cl)cncc5Cl)noc4C4CC4)(CC2)CC3)cc(C(=O)O)c1 [Example 493, (E)-3-((4-(2-(5-cyclopropyl-3-(3,5-dichloropyridin-4-yl)isoxazol-4-yl)vinyl)bicyclo[2.2.2]octan-1-yl)methoxy)-5-methoxybenzoic acid] | 18 |

| Compound | EC50 [nM] |
| --- | --- |
| O=C(O)c1cc(OCC2CCC2)c2cc(OCC34CCC(OCc5c(-c6c(Cl)cncc6Cl)noc5C5CC5)(CC3)CC4)ccc2n1 [Example 353] | 11 |
| O=C(O)c1ccc2nc(C34CCC(/C=C/c5c(-c6c(Cl)cncc6Cl)noc5C5CC5)(CC3)CC4)sc2c1 [Example 505, (E)-2-(4-(2-(5-cyclopropyl-3-(3,5-dichloropyridin-4-yl)isoxazol-4-yl)vinyl)bicyclo[2.2.2]octan-1-yl)benzo[d]thiazole-6-carboxylic acid] | 88 |
| O=C(O)c1ccnc(-c2noc(C34CCC(OCc5c(-c6c(Cl)cccc6Cl)noc5C5CC5)(CC3)CC4)n2)c1 [Example 10, 2-(5-(4-((5-cyclopropyl-3-(2,6-dichlorophenyl)isoxazol-4-yl)methoxy)bicyclo[2.2.2]octan-1-yl)-1,2,4-oxadiazol-3-yl)isonicotinic acid] | 2700 |
| O=C(O)c1cnn2ccc(C#CC34CCC(OCc5c(-c6c(Cl)cncc6Cl)noc5C5CC5)(CC3)CC4)cc12 [Example 395] | 120 |
| O=C(O)c1ccc(F)c(-c2noc(C34CCC(COCc5c(-c6c(Cl)cncc6Cl)noc5C5CC5)(CC3)CC4)n2)c1 [Example 486, 3-(5-(4-(((5-cyclopropyl-3-(3,5-dichloropyridin-4-yl)isoxazol-4-yl)methoxy)methyl)bicyclo[2.2.2]octan-1-yl)-1,2,4-oxadiazol-3-yl)-4-fluorobenzoic acid] | 2700 |
| COC(=O)c1cccc(-c2noc(C34CCC(OCc5c(-c6ccccc6C(F)(F)F)noc5C5CC5)(CC3)CC4)n2)c1 [Example 36] | 3500 |
| O=C(O)c1cccc2nc(C34CCC(OCc5c(-c6c(Cl)cncc6Cl)noc5C5CC5)(CC3)CC4)sc12 [Example 432, 2-(4-((5-cyclopropyl-3-(3,5-dichloropyridin-4-yl)isoxazol-4-yl)methoxy)bicyclo[2.2.2]octan-1-yl)benzo[d]thiazole-7-carboxylic acid] | 23 |
| COc1c(F)cc(-c2noc(C34CCC(OCc5c(-c6c(Cl)cncc6Cl)noc5C5CC5)(CC3)CC4)n2)cc1C(=O)O [Example 238, 5-(5-(4-((5-cyclopropyl-3-(3,5-dichloropyridin-4-yl)isoxazol-4-yl)methoxy)bicyclo[2.2.2]octan-1-yl)-1,2,4-oxadiazol-3-yl)-3-fluoro-2-methoxybenzoic acid] | 21 |
| COc1cc(C(=O)O)nc2ccc(OCC34CCC(OCc5c(-c6ccccc6C(F)(F)F)noc5C5CC5)(CC3)CC4)cc12 [Example 289] | 150 |
| COc1ccc(-c2noc(C34CCC(/C=C/c5c(-c6c(Cl)cncc6Cl)noc5C5CC5)(CC3)CC4)n2)cc1C(=O)NS(C)(=O)=O [Example 438, (E)-5-(5-(4-(2-(5-cyclopropyl-3-(3,5-dichloropyridin-4-yl)isoxazol-4-yl)vinyl)bicyclo[2.2.2]octan-1-yl)-1,2,4-oxadiazol-3-yl)-2-methoxy-N-(methylsulfonyl)benzamide] | 33 |
| O=C(O)c1cc(-c2noc(C34CCC(OCc5c(-c6c(Cl)cccc6Cl)noc5C5CC5)(CC3)CO4)n2)ccc1F [Example 198] | 98 |
| O=C(O)c1ncc(OCC23CCC(OCc4c(-c5ccccc5C(F)(F)F)noc4C4CC4)(CC2)CC3)c2ccccc12 [Example 296] | 62 |
| Cc1nc(C23CCC(COCc4c(-c5c(Cl)cccc5Cl)noc4C4CC4)(CC2)CC3)sc1C(=O)O [Example 179, 2-(4-(((5-cyclopropyl-3-(2,6-dichlorophenyl)isoxazol-4-yl)methoxy)methyl)bicyclo[2.2.2]octan-1-yl)-4-methylthiazole-5-carboxylic acid] | 560 |
| CC(C)(C#N)c1ccc(C23CCC(/C=C/c4c(-c5c(Cl)cncc5Cl)noc4C4CC4)(CC2)CO3)cc1 [Example 475, (E)-2-(4-(4-(2-(5-cyclopropyl-3-(3,5-dichloropyridin-4-yl)isoxazol-4-yl)vinyl)-2-oxabicyclo[2.2.2]octan-1-yl)phenyl)-2-methylpropanenitrile] | 1500 |
| O=C(O)C1CC1c1noc(C23CCC(OCc4c(-c5c(Cl)cncc5Cl)noc4C4CC4)(CC2)CC3)n1 (stereo not drawn) [Example 270, 2-(5-(4-((5-cyclopropyl-3-(3,5-dichloropyridin-4-yl)isoxazol-4-yl)methoxy)bicyclo[2.2.2]octan-1-yl)-1,2,4-oxadiazol-3-yl)cyclopropane-1-carboxylic acid] | 1500 |
| O=C(O)c1ccc(OCC23CCC(OCc4c(-c5c(Cl)cncc5Cl)noc4C4CC4)(CC2)CC3)c(C(F)(F)F)c1 [Example 320] | 410 |
| CCn1nc(C(=O)O)c2ccc(C34CCC(OCc5c(-c6c(Cl)cncc6Cl)noc5C5CC5)(CC3)CC4)nc21 [Example 403] | 4 |
| Cc1cc(OCC23CCC(/C=C/c4c(-c5c(Cl)cncc5Cl)noc4C4CC4)(CC2)CC3)c2cc(C(=O)O)cc(F)c2n1 [Example 447, (E)-4-((4-(2-(5-cyclopropyl-3-(3,5-dichloropyridin-4-yl)isoxazol-4-yl)vinyl)bicyclo[2.2.2]octan-1-yl)methoxy)-8-fluoro-2-methylquinoline-6-carboxylic acid] | 2400 |
